The results in this text go back to patent US9156824B2, “CDC7 inhibitors” (Eli Lilly and Company, priority 2013, dated 2015).

The test addresses T1, CDC7/DBF4 (Homo sapiens, UniProt O00311).
T1 construct: host or cells: insect cells
The test can be described thus: CDC7/DBF4 in vitro enzyme assay (Transcreener Kinase ADP-FP). The test is classed as biochemical. As to conditions: ATP 5 μM, MCM2 400 nM, 60 minutes, read-out: IC50 against CDC7/DBF4 kinase. The procedure:
The Transcreener™ Kinase ADP-FP assay is used to determine compound IC50 values against CDC7/DBF4 kinase. The Kinase ADP-FP assay assesses the activity of CDC7/DBF4 in the presence of compound inhibitors by measuring the concentration of ADP formed in a kinase reaction. The kinase reaction is performed using a 25 microliter reaction volume in 96 well assay plate. For the ADP-FP assay, the reagents are added to obtain the final reaction conditions of HEPES (25 mM) pH 7.5, 0.03% Triton® X-100, magnesium chloride (10 mM), DTT (1 mM), MCM2 (400 nM) (Amino Acid 1-209, a physiological substrate of CDC7/DBF4), spermine (4 mM), CDC7/DBF4 (2,640 ng/mL) (recombinant human CDC7/DBF4 expressed in insect cells), 4% dimethyl sulfoxide and serial dilutions of compound (diluted 1:3 from 20,000 nM to 1 nM). Enzyme and substrate is added to compound followed by ATP to 5 μM to start the reaction. The plates are incubated at room temperature for 60 minutes.
For the ADP-FP format add 25 microliters of a quench detection reagent containing HEPES (52 mM) pH 7.5, EDTA (20 mM), sodium chloride (0.4 M), polyoxyethyleneglycol dodecyl ether (0.02%) (BRIJ-35™), anti-ADP antibody (10 μg/mL), and ADP (4 nM) Transcreener® ADP Alexa Fluor® 633 tracer to quench the reaction. The plates are incubated for 1 hour, and then read in a Wallac EnVision™ 2104 Multilabel Reader (PerkinElmer) in Fluorescence Polarization mode using polarizing filters of Ex620nm and Em688nm wavelength. Millipolarization (mP) raw data is converted to micromolar ADP using a prepared ADP/ATP standard curve starting at 5 μM ADP 1:1 serial dilution in reaction buffer to 0.0025 μM ADP. The IC50 value for each compound is derived using percent inhibition data calculated from the μM ADP reaction data relative to on-plate controls (DMSO versus 100 mM EDTA inhibited enzyme controls). The percent inhibition and ten-point compound concentration data is then fitted to a four-parameter logistic equation.

T1 sequence (O00311 whole entry): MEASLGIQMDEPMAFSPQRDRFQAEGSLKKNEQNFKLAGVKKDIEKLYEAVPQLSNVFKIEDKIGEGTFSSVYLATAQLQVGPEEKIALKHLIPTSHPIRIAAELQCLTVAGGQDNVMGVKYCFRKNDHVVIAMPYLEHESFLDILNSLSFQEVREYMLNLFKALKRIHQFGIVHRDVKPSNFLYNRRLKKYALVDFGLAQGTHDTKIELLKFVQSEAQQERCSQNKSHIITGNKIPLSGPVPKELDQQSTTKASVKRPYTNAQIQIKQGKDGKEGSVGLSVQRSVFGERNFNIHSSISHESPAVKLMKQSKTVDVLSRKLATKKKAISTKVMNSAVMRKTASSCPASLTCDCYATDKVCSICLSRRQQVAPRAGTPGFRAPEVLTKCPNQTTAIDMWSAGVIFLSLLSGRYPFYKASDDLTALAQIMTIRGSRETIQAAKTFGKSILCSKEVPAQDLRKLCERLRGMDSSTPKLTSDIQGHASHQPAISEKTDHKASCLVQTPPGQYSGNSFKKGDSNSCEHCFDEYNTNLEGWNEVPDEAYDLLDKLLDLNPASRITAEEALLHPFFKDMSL
T1 sequence (Q9UBU7 whole entry partner): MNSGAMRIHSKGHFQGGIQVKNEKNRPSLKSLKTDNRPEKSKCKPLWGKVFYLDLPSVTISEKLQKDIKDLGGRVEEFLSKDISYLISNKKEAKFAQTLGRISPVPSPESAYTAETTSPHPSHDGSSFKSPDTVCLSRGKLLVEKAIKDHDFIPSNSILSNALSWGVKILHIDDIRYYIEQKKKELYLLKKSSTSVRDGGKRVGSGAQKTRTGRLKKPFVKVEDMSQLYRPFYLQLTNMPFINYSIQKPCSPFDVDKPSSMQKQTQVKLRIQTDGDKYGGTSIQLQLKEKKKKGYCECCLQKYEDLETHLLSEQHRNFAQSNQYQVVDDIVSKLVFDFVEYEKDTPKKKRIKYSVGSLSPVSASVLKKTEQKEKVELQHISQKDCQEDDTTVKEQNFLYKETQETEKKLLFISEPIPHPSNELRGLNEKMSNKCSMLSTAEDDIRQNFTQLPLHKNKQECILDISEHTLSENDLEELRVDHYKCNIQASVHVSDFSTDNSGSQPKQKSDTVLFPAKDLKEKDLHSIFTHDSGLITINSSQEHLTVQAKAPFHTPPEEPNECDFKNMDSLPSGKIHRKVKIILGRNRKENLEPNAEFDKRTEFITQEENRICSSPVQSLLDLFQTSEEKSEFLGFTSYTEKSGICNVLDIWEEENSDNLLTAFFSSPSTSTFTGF

`CC1(c2ncncc2F)NC(=O)c2cc(-c3cn[nH]c3)ccc21` (single isomer, unassigned; isomer 2) [Example 4, 3-(5-Fluoropyrimidin-4-yl)-3-methyl-6-(1H-pyrazol-4-yl)isoindolin-1-one, Isomer 2, Hydrate]: the IC50 was determined as 3.3 nM.
